According to publication PMC11547576, “Identification of a New Promising BAG3 Modulator Featuring the Imidazopyridine Scaffold” (Molecules, 2024):

Experiments:
BAG3 full-length = biological target: T1, BAG3 full-length (Homo sapiens, UniProt O95817); test: SPR assay on BAG3 full-length protein; details: Biacore T200, 0 to 100 µM, 25 °C, 1:1 interaction model, n.b. = no binding; for Kd: read-out: BAG3 FULL KD (µM) ± SD
T1 construct: both the full-length BAG3 protein and its BAG domain; purchased Novus Biologicals (Littleton, CO, USA)
Method: (§1) In this study, we employed SPR experiments to evaluate the interactions between synthesized compounds (1–14) and both the full-length BAG3 protein and its BAG domain. Only the compounds that successfully bound to the full-length BAG3 protein were tested for their interaction with the BAG domain. Protein immobilization was achieved using the amide coupling method, and the compounds were tested at ten different concentrations, ranging from 0 to 100 µM. A known binder of BAG3-BD, LK4 ((Z)-ethyl 2-(5-(3,4-dihydroxybenzylidene)-2,4-dioxothiazolidin-3yl)acetate), was used as a positive control. […] Compound 14 also bound the target but with slightly higher KD values, still within the micromolar range. The three identified compounds were further investigated to understand whether this binding induced an effect on BAG3 protein functions. The KD values reported in Table 1 for the known inhibitor LK4 differ from those in previous studies due to the use of a newer-generation instrument for the SPR experiments. The earlier experiments utilized the Biacore 3000, whereas the current study employed the Biacore T200. While ligand binding was confirmed in both sets of experiments, the slightly different KD values are attributed to the enhanced sensitivity of the Biacore T200.
(§2) Recombinant human BAG3 protein (Bcl2-associated athanogene 3) was sourced from Novus Biologicals (Littleton, CO, USA), while the BAG3 domain (BAG3-BD) was procured from ARETA International S.r.l. (Gerenzano, Italy). We utilized (Z)-ethyl 2-(5-(3,4-dihydroxybenzylidene)-2,4-dioxothiazolidin-3-yl)acetate (LK4), a known BAG3 inhibitor previously identified by our group. Surface Plasmon Resonance (SPR) spectroscopy was employed to assess the affinity of synthesized molecules for BAG3 and BAG-BD using a Biacore T200 optical biosensor equipped with CM5 sensor chips (Cytiva, Marlborough, MA, USA). BAG3 and BAG-BD were immobilized on the CM5 sensor chip using standard amine-coupling protocols. BAG3 protein (0.067 μg/μL in 10 mM CH3COONa, pH 4.5) was immobilized at a flow rate of 10 μL/min, resulting in a density of 14 kRU. The BAG3 domain (0.38 μg/μL in 10 mM CH3COONa, pH 4.5) was immobilized under similar conditions, achieving a density of 4 kRU. For the experiments, BAG3 and BAG-BD surfaces, along with an unmodified reference surface, were prepared for simultaneous analyses.
Compounds 1–14 and LK4 were dissolved to 10 mM in 100% DMSO and then diluted 1:20 (v/v) in PBS-P buffer (0.2 M phosphate buffer, 27 mM KCl, 1.37 M NaCl, 0.5% surfactant P20) to achieve a final DMSO concentration of 5.0%. These compounds were injected in a concentration series (1:2 dilution, 10 different concentrations) ranging from 0 to 100 μM, prepared in 96-well plates. SPR experiments were conducted at 25 °C with a flow rate of 20 μL/min, featuring 90 s of association and 400 s of dissociation monitoring. Changes in mass, reflected as resonance units (RU), were recorded to determine binding responses. KD values were calculated using Biaevaluation software 3.2 by globally fitting the double-referenced association and dissociation data to a 1:1 interaction model. See Supplementary Materials for all the sensorgrams (Figures S43–S50).

BAG3-BD = biological target: T2, BAG3-BD (Homo sapiens, UniProt O95817); test: SPR assay on BAG domain of BAG3 (BAG3-BD); format: binding; details: Biacore T200, 0 to 100 µM, 25 °C, 1:1 interaction model, read-out: BAG DOMAIN KD (µM) ± SD
T2 construct: the BAG3 domain (BAG3-BD) was procured from ARETA International S.r.l; purchased ARETA International S.r.l; (Gerenzano, Italy)
T2 sequence (O95817 421-498 limits assumed): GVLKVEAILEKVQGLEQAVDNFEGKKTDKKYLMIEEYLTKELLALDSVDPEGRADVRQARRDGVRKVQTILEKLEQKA
Method: as §1
as §2, with “For the experiments, BAG3 and BAG-BD surfaces, along with an unmodified reference surface, were prepared for simultaneous analyses.” left out
Compounds 1–14 and LK4 were dissolved to 10 mM in 100% DMSO and then diluted 1:20 (v/v) in PBS-P buffer (0.2 M phosphate buffer, 27 mM KCl, 1.37 M NaCl, 0.5% surfactant P20) to achieve a final DMSO concentration of 5.0%. […] Changes in mass, reflected as resonance units (RU), were recorded to determine binding responses. KD values were calculated using Biaevaluation software 3.2 by globally fitting the double-referenced association and dissociation data to a 1:1 interaction model. […]

HeLa cells = test: MTT cell viability assay on HeLa cells; format: cell-based; details: 72 h
Method: Elevated expression levels of BAG3 are strongly associated with signaling pathways in various types of malignant cells; consequently, reducing the activity of this co-chaperone inhibits cell proliferation, triggers apoptosis, and induces cell cycle arrest. To assess the activity of compounds 10, 12, and 14, cytotoxicity assays were performed on HeLa cells, which were chosen for their tendency to overexpress BAG3 proteins. MTT assays were conducted by exposing HeLa cells to different concentrations of the compounds (25, 50, and 100 µM) for 72 h. Additionally, 10% DMSO was used as a positive control, while 0.1% DMSO served as a negative control. […] The next step involved the assessment of the cytotoxicity of the most promising candidate, 10, on healthy cells to determine its safety profile. To achieve this, MTT assays were conducted on HaCat cells over 72 h.
Human cervical carcinoma cell lines (HeLa, kindly donated by Prof. Ornella Moltedo, Department of Pharmacy, University of Salerno) and immortalized human keratinocytes (HaCaT) were cultured in a DMEM/high glucose medium. This medium was supplemented with 10% FBS (v/v), 2 mM/L glutamine, 100 U/mL penicillin, and […] streptomycin. The cells were maintained at 37 °C in a humidified atmosphere with 5% CO2. To ensure logarithmic growth, the cells were sub-cultured every 2 days.
Cell viability was assessed by measuring mitochondrial metabolic activity using a colorimetric assay, which involves the reduction of 3-[4,5-dimethylthiazol-2,5-diphenyl-2H-tetrazolium bromide (MTT) to purple formazan. Stock solutions of compounds 10, 12, and 14 (50 mM in DMSO) were stored at −20 °C in the dark and diluted just before being added to the sterile culture medium. Briefly, HeLa cells (3.5 × 10^3 cells/well) were seeded in triplicate in 96-well plates, and after 24 h, to allow for attachment, the cells were treated with various concentrations of the tested compounds (25, 50 and 100 μM), 0.1% (v/v) DMSO as a negative control, and 10% (v/v) DMSO as a positive control for 72 h. Following treatment, 20 μL of MTT (5 mg/mL in PBS) was added to each well, and the cells were incubated for an additional 3 h at 37 °C. The formazan crystals formed were then dissolved in 100 μL of a buffer containing 50% (v/v) N, N-dimethylformamide and 20% SDS (pH 4.5). Absorbance was measured at 570 nm using a Multiskan™ GO Microplate Spectrophotometer (Thermo Fisher Scientific, Waltham, MA, USA,). […] The IC50 values, representing the concentration causing 50% inhibition of cell survival, were calculated and compared to control cells treated with DMSO using GraphPad Prism 8.0 software through nonlinear regression of dose–response inhibition. Only for compound 10 was the IC50 also assessed on HaCaT cells (5.0 × 10^3 cells/well) after 72 h of treatment.

T1 sequence (O95817 whole entry, the tested form may be a part): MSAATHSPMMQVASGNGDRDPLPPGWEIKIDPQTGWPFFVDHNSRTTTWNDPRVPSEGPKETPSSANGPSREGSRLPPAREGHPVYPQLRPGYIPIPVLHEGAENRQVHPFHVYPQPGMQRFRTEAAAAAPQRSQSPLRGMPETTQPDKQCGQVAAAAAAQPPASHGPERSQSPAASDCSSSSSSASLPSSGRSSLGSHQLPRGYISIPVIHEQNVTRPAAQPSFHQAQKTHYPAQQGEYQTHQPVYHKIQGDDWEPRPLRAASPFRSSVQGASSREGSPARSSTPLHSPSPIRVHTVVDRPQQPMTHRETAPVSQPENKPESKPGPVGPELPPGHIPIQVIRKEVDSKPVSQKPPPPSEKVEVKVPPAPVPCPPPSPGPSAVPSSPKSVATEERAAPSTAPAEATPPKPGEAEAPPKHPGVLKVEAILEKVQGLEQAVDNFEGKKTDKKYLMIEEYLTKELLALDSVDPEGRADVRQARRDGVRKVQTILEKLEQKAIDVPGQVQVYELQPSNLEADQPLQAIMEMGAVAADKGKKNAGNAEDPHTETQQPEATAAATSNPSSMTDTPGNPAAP

| BAG3 FULL KD (µM) ± SD (BAG3 full-length) | Structure (SMILES) | further results |
| --- | --- | --- |
| n.b. | Brc1ccn2c(Nc3ccc4ccccc4c3)c(-c3ccccc3Br)nc2c1 [Compound 8, 7-bromo-2-(2-bromophenyl)-N-(naphthalen-2-yl)imidazo[1,2-a]pyridin-3-amine] |  |
| n.b. | CCc1ccc(-c2nc3cc(Br)ccn3c2Nc2ccc3ccccc3c2)cc1 [Compound 9, 7-bromo-2-(4-ethylphenyl)-N-(naphthalen-2-yl)imidazo[1,2-a]pyridin-3-amine] |  |
| n.b. | CCc1ccc(-c2nc3ccc(Cl)cn3c2NC(C)C)cc1 [Compound 11, 6-chloro-2-(4-ethylphenyl)-N-isopropylimidazo[1,2-a]pyridin-3-amine] |  |
| n.b. | COc1ccc(Nc2c(-c3cc(OC)ccc3F)nc3cc(C)ccn23)cc1 [Compound 13, 2-(2-fluoro-5-methoxyphenyl)-N-(4-methoxyphenyl)-7-methylimidazo[1,2-a]pyridin-3-amine] |  |

The remaining lines, values behind:

| Structure (SMILES) | BAG3 FULL KD (µM) ± SD (BAG3 full-length) | further results |
| --- | --- | --- |
| COc1ccc(F)c(-c2nc3cc(C)ccn3c2NCc2ccccc2)c1 [Compound 14, N-benzyl-2-(2-fluoro-5-methoxyphenyl)-7-methylimidazo[1,2-a]pyridin-3-amine] |  | Kd (BAG3 full-length): 76.2 ± 5.44 µM; Kd (BAG3-BD): 16.9 ± 5.87 µM; mortality (HeLa cells; 25 µM): lost its effect; mortality at 100 µM (HeLa cells; Homo sapiens): 50% |
| Clc1ccc2nc(-c3ccccc3Br)c(Nc3ccc4ccccc4c3)n2c1 [Compound 12, 2-(2-bromophenyl)-6-chloro-N-(naphthalen-2-yl)imidazo[1,2-a]pyridin-3-amine] |  | Kd (BAG3 full-length): 20.7 ± 0.42 µM; Kd (BAG3-BD): 14.7 ± 2.69 µM; mortality at 25 µM (HeLa cells; Homo sapiens, 25 µM): 40%; mortality at 100 µM (HeLa cells; Homo sapiens): 60%; IC50 (HeLa cells; Homo sapiens, seven concentrations (1 to 100 µM)): 38.9 ± 3.49 µM |
| c1ccc(-c2nc3ccccn3c2NC2CCCCC2)cc1 [Compound 1, N-cyclohexyl-2-phenylimidazo[1,2-a]pyridin-3-amine] | n.b. ^a |  |
| CCc1nc2ccccn2c1NC1CCCCC1 [Compound 2, N-cyclohexyl-2-ethylimidazo[1,2-a]pyridin-3-amine] | n.b. |  |
| CCc1nc2ccc(Br)cn2c1NC1CCCCC1 [Compound 6, 6-bromo-N-cyclohexyl-2-ethylimidazo[1,2-a]pyridin-3-amine] | n.b. |  |
| CCCCNc1c(CC)nc2ccccn12 [Compound 4, N-butyl-2-ethylimidazo[1,2-a]pyridin-3-amine] | n.b. |  |
| Brc1ccc2nc(-c3ccccc3)c(NC3CCCCC3)n2c1 [Compound 5, 6-bromo-N-cyclohexyl-2-phenylimidazo[1,2-a]pyridin-3-amine] | n.b. |  |
| CCCCNc1c(-c2ccccc2)nc2ccccn12 [Compound 3, N-butyl-2-phenylimidazo[1,2-a]pyridin-3-amine] | n.b. |  |
| CCc1ccc(-c2nc3cc(Br)ccn3c2NC(C)C)cc1 [Compound 7, 7-bromo-2-(4-ethylphenyl)-N-isopropylimidazo[1,2-a]pyridin-3-amine] | n.b. |  |
| CCOC(=O)CN1C(=O)S/C(=C\c2ccc(O)c(O)c2)C1=O [LK4, (Z)-ethyl 2-(5-(3,4-dihydroxybenzylidene)-2,4-dioxothiazolidin-3yl)acetate, reference compound] |  | Kd (BAG3 full-length): 19.9 ± 6.58 µM; Kd (BAG3-BD): 0.18 ± 0.02 µM |
